According to patent US11166924B2, “N-methyl-d-aspartate receptor allosteric modulators and methods for their use” (Qingdao Primedicine Pharmaceutical Company, Ltd., priority 2016, dated 2021):

Tests used:
[1] = biological target: T1, GluN1/GluN2A-containing NMDARs (Rattus norvegicus, UniProt P35439+Q00959); assay: Ca2+ influx assay (Fluo-4) in primary cultured rat neurons; assay type: cell-based
T1 construct: endogenous in cells; host or cells: primary rat cortical neurons, 12-14 days in culture
Protocol: Rat neurons isolated from the entire cortex were plated onto poly-d-lysine-coated 96-well plates. After 12-14 days in culture, the level of intracellular calcium was assayed using the Fluo-4 No Wash calcium assay kit according to the manufacturer's protocol (Thermo Fisher Scientific). In brief, the neuronal culture medium was removed and replaced with a calcium assay buffer (CAB) containing […], 20 mM HEPES, 2.5 mM probenacid, and Fluo4-NW dye mix (pH 7.4; Thermo Fisher Scientific). The cells were then incubated for 45 minutes at 37° C. for dye loading and then 15 minutes at 25° C. To isolate calcium signals mediated by NMDARs, NMDA was used as an agonist (10 μM), and 2 μM glycine were added. The antagonist […] was used to block the GluN1/GluN2A NMDARs. The calcium fluorescence measurement was performed at 25° C. after 60 seconds of recording with a FLEXStation II benchtop scanning fluorometer (Molecular Devices); then, the NMDAR agonist NMDA (10 μM)/glycine (2 μM) was added at 180 seconds. Fluorescence plate reading continued for a total of 30 mins with use of an excitation of 485 nm, an emission of 538 nm, and a cutoff of […]. The data were recorded using SoftMax Pro software (Molecular Devices). […]

[2] = system: rat model of middle cerebral artery occlusion (MCAo); assay: Cerebral ischemia (MCAo) infarct volume; assay type: in vivo
Excerpt: Adult male Sprague Dawley rats weighting ˜200 g were anesthetized, and the middle cerebral artery (MCA) was exposed by making a craniotomy window (2 mm in diameter) 1 mm rostral to the anterior junction of the zygoma and the squamosal bone. We used the suture ligation method to achieve three-vessel occlusion. The exposed MCA was ligated with a square knot using a 10-0 nylon suture. Next, the bilateral common carotid arteries (CCAs) were clamped with nontraumatic arterial clips. Successful surgery was confirmed by a marked drop in regional cerebral blood flow, monitored by a laser Doppler flowmeter (PF-5010, Periflux system; Perimed AB). After 90 min ischemia, the suture and clips were removed to allow instant reperfusion. Experimental rats were subdivided into groups to receive different doses of Npam43 or saline/vehicle (as indicated) via femoral vein injection. 2,3,5-Triphenyltetrazolium chloride (TTC) was used to evaluate infarct size in stained brain sections. […]
The rats were anesthetized, with body temperature maintained at 37.0±0.5° C. with a heating pad during imaging. […] The non-infarct areas were drawn manually from slice to slice and the volumes were measured with Voxtool analysis software (General Electric). The infarct size was quantified by subtracting the non-infarct volume of the ischemic hemisphere from the total volume of the contralateral hemisphere. […]

GluN1^R115E/GluN2A = biological target: T2, GluN1^R115E/GluN2A (Rattus norvegicus, UniProt P35439+Q00959, R115E); assay: Patch clamp in HEK293 cells expressing mutant GluN1 R115E/GluN2A; assay type: cell-based
T2 construct: expressed in transfected cells; host or cells: HEK293
Protocol: Whole cell patch-clamp recordings were performed under voltage-clamp mode using an Axopatch 200B or 1D patch-clamp amplifier (Molecular Devices). Whole-cell currents were recorded at a holding potential of −60 mV unless indicated elsewhere, and signals were filtered at 2 kHz, digitized at 10 kHz (Digidata 1322A). Recording pipettes (3-5 MΩ) were filled with intracellular solution containing (mM): CsCl 140, HEPES 10, Mg-ATP 4, QX-314 5, pH 7.20; osmolarity, 290-295 mOsm. BAPTA (10 mM) was added in the intracellular solution (unless otherwise specified). The coverslips were continuously superfused with extracellular solution containing (mM): NaCl 140, KCl 5.4, HEPES 10, CaCl2 1.3, glucose 20, pH 7.4; osmolarity, 305-315 mOsm. NMDA-induced currents were applied by NMDA through perfusion fast-step (Warner Instruments). With perfusion fast-step system, NMDA application was achieved by using a two-square barrel glass tubing and depending on the age of the cultured neurons, CNQX (10 μM), TTX (0.5 μM) or BIC (10 μM) were added in the extracellular solution to minimize the activation of ionotropic glutamate receptors and voltage-gated sodium channels, respectively. All experiments were performed at room temperature. Recordings from at least six HEK293 cells/neurons were performed for all active compounds. […]

T2 sequence (Q00959 23-1464, other chains not shown): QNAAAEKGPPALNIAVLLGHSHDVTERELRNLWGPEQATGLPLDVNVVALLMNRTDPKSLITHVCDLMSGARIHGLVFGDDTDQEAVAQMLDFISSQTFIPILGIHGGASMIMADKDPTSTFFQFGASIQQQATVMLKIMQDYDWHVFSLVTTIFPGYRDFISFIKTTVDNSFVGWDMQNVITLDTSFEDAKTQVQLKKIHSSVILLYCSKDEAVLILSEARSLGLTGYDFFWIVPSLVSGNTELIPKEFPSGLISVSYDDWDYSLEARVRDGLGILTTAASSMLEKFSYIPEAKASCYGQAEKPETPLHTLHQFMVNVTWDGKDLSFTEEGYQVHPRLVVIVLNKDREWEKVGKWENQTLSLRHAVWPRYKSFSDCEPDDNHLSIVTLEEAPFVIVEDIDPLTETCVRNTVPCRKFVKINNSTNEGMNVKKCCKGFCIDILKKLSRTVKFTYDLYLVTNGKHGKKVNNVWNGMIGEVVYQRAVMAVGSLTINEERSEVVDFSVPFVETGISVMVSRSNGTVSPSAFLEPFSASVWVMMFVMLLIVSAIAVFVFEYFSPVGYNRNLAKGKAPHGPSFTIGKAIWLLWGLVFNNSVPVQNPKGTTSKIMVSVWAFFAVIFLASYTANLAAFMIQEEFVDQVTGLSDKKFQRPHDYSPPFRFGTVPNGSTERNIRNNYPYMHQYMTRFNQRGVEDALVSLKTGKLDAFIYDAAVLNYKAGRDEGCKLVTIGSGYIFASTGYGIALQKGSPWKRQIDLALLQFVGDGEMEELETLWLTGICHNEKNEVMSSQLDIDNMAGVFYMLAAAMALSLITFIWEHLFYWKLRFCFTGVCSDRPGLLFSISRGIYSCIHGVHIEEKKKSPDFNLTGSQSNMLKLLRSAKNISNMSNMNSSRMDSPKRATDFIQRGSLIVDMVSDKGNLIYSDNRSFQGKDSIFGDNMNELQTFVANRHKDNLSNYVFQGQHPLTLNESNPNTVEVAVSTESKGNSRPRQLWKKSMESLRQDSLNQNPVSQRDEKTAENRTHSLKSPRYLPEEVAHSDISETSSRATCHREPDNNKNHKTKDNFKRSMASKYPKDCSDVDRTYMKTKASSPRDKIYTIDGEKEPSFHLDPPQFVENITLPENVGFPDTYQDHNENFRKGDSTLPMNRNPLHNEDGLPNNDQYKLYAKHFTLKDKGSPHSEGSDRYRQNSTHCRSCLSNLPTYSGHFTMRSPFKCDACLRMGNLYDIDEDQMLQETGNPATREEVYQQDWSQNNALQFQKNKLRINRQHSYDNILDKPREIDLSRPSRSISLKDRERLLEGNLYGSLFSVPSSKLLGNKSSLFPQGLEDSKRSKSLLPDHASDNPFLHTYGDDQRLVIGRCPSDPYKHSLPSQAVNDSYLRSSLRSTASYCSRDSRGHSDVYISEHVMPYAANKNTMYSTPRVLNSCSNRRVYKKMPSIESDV
T1 sequence (Q00959 23-1464, other chains not shown): as above

With `CCOc1cc(Cl)c(Cl)c(/C=N/NC(=O)c2ccccc2Br)c1O` [Npam43, (E)-2-bromo-N′-(2,3-dichloro-5-ethoxy-6-hydroxybenzylidene)benzohydrazide] the “Ca2+ influx in response to Npam43 with co-applied NVP-AAM0077” value ([1]; GluN2A antagonist co-applied) was “marked reduction of Ca^2+ influx”, the “Ca2+ influx fluorescence signal” value ([1]; NMDA 10 μM, glycine 2 μM) was “increased the Ca^2+ influx fluorescence signal” and the “Infarct size, long term evaluation point” value ([2]; 7 days, MRI scanning, FIG. 25) was “reduces infarct size”. The Infarct volume ([2]; MCAo rats, compared to vehicle/saline, 24 h post ischemia (FIG. 24)) was “reduces infarct volume”, the Relative potentiation (GluN1^R115E/GluN2A; Table 3) was 255 ± 3.5% and the “Net Difference potentiation” value (GluN1^R115E/GluN2A; normalized to wild-type) was “+22.0 ± 0.40%”.
